Reference: the METLIN SMRT retention time set (Domingo-Almenara et al. 2019)

Assay: gradient 5% acetonitrile 3 min, to 50% in 2 min, to 85% in 15 min, held 3 min, 100 µL/min
Conditions: column: Zorbax Extend-C18 2.1 x 50 mm; eluents: water / acetonitrile, 0.1% formic acid
Outline: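 Each retention time is based on an adduct peak selected computationally and verified by manual inspection. Measurements used HPLC–quadrupole time-of-flight mass spectrometry in positive and negative ionization mode on mixtures of ~100 pure standards. Chromatography ran on a Zorbax Extend-C18 column (2.1 × 50 mm, 1.8 μm) at 100 μL/min with water and acetonitrile, each containing 0.1% formic acid, and dead and dwell volumes of 40 μL and 900 μL.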

Compound | RP-LC retention time
O=C(Nc1cccc(-c2ccc(N3CCOCC3)nn2)c1)Nc1ccccc1Cl | 730 s
COC(=O)c1c(NCCc2cccs2)c2ccc(F)cc2[nH]c1=O | 766 s
Cc1nc([C@@H]2CN(C(=O)C(C)(C)C)C[C@H]2C(N)=O)n[nH]1 | 564 s
NC(=O)Cc1ccc(NS(=O)(=O)c2cccs2)cc1 | 604 s
O=C(Cc1cc(-c2ccc(Cl)cc2)on1)NCCCn1ccnc1 | 582 s
CCOc1ccc(NC(=O)c2cnc3c(c2)c(=O)n(C)c(=O)n3-c2ccc(OC)cc2)cc1 | 901 s
Nc1o[nH]c(=O)c1C1CCCCC1 | 680 s
Fc1cccc(-c2nnc(Cc3nc(-c4cccc(Cl)c4)no3)o2)c1 | 1070 s
O=C(NCc1ccco1)c1ccc(OCc2nc(C3CC3)cs2)cc1 | 825 s
O=C(Cc1c[nH]c2ccccc12)N1CC(n2cc(COCC3CC3)nn2)C1 | 704 s
CC(C)n1cc(S(=O)(=O)NCc2ccc(C(F)(F)F)cc2)c2cccnc21 | 974 s
O=C(c1nc2ccccc2s1)N1CCC(COCc2ccccc2)CC1 | 1150 s
Cc1ccc2[nH]cc(CCNC(=O)C3CCCN(C(=O)c4[nH]c(C)cc4C)C3)c2c1 (stereo not drawn) | 832 s
COc1cc([C@@H]2c3cc4c(cc3[C@H](O)[C@@H](CO)[C@@H]2C(=O)N2CCN(c3ccc(F)cc3)CC2)OCO4)cc(OC)c1OC | 720 s
COc1ccc(NC(=O)Cn2c(=O)n(-c3ccccc3)c(=O)c3c2cc(C)n3C)cc1OC | 791 s
COc1cccc(OC)c1C(=O)Nc1cc2c(cc1S(=O)(=O)c1ccc(F)cc1)n(C)c(=O)n2C | 852 s
O=C(Cn1cccc(-c2nc(-c3ccc(F)cc3)no2)c1=O)NC1CCCC1 | 797 s
CSc1ccc(C2c3[nH]c4ccccc4c3CCN2C(=O)c2ccncc2)cc1 (stereo not drawn) | 958 s
CC(C)C(=O)Nc1ccc(C2(C(=O)N3CCN(C(C)C)CC3)CCCCC2)cc1 | 652 s
CCOc1ccccc1-c1noc(Cn2c(=O)n(CC3CCCO3)c(=O)c3ccccc32)n1 (stereo not drawn) | 966 s
Cc1cc2nc(SCc3noc(CCC(=O)Nc4nc(-c5ccccc5)cs4)n3)[nH]c2cc1C | 814 s
CCc1ccc2oc(=O)cc(CN3CCN(c4ccccn4)CC3)c2c1 | 669 s

Compound | RP-LC retention time
CCCN1CCN(C(=O)C2CCN(S(=O)(=O)c3ccc4c(c3)NC(=O)CO4)CC2)CC1 | 586 s
COc1cc([C@@H]2c3cc4c(cc3[C@H](O)[C@@H](CO)[C@@H]2C(=O)NCC(C)C)OCO4)cc(OC)c1OC | 668 s
Cn1cc(CN2CCC(C(=O)NCCCN3CCc4ccccc4C3)CC2)c2cc(Cl)ccc21 | 878 s
O=C(Nc1cccn2c(C3CCC3)nnc12)c1ccc2c(c1)OCO2 | 744 s
CNC(=O)c1cc(=O)[nH]c2c(C)cccc12 | 588 s
Cc1ccc(CN2CCN(C3CCN(S(=O)(=O)c4cc(F)ccc4F)CC3)C(=O)C2=O)cc1 | 910 s
CCNc1cc(N2CCCC(CCC(=O)N(C)Cc3cn(C)nc3C)C2)ncn1 (stereo not drawn) | 598 s
O=C(COc1ccc(F)cc1)N1CCN2CCS(=O)(=O)N(C3CC3)C(=O)C2C1 (stereo not drawn) | 773 s
Cc1ccc(-c2nc(NC(=O)Cc3csc(-c4ccccc4)n3)sc2C)cc1 | 1250 s
COc1ccccc1N1CCN(C(=O)c2ccc(=O)n(Cc3ccc(F)cc3)n2)CC1 | 763 s
CSc1nc(N)c(C(=O)NC2CCCCC2)s1 | 878 s
CC(=O)N1CCc2cc(N3CC(C(=O)Nc4cccc(Cl)c4F)CC3=O)ccc21 (stereo not drawn) | 742 s
COc1ccc(CCNC(=O)c2c(N3CCCC3=O)c3cc(OC)ccc3n2C)c(OC)c1 | 877 s
COc1ccc(OC)c(CNC(=O)c2cn3cc(C)ccc3n2)c1 | 694 s
COc1ccccc1-c1noc(CCn2nc(-c3ccccc3)ccc2=O)n1 | 817 s
COC(=O)c1ccc(C2Nc3ccc(OC)cc3[C@H]3OCCC[C@@H]23)cc1 (stereo partly drawn) | 1020 s
O=C(NCc1ccc2c(c1)OCO2)C1CCCN(c2nnc3c(Cl)cccn23)C1 (stereo not drawn) | 701 s
CCN1c2cc(F)ccc2C(=O)NC12CCN(C(=O)c1cc(OC)cc(OC)c1)CC2 | 813 s
Cc1ccc(-c2nnc(-c3nn(C)c4c3CN(S(=O)(=O)c3ccccc3F)CC4)o2)cc1 | 970 s
CSc1ccc(-c2nc3cnccn3c2Nc2ccc(C(=O)NCc3ccco3)cc2)cc1 | 778 s
Cn1cc(C(CNC(=O)Nc2ccc(Br)cc2F)c2cccnc2)c2ccccc21 (stereo not drawn) | 781 s
c1ccc(OCc2nc(-c3cccc(-c4csc(C5CC5)n4)c3)no2)cc1 | 1330 s

Compound | RP-LC retention time
COc1ccccc1-c1nc(-c2ccc(S(=O)(=O)N3CCCCC3)cc2)no1 | 1220 s
COc1cc([C@@H]2c3cc4c(cc3[C@H](O)[C@@H](CO)[C@@H]2C(=O)N2CCc3ccccc32)OCO4)cc(OC)c1OC | 771 s
COCCNc1c(-c2ccccc2)nc2sc(C(=O)NCc3cccnc3)c(C)n12 | 611 s
O=C(NCc1ccc(C(F)(F)F)cc1)C1CCCN(c2cn[nH]c(=O)c2)C1 (stereo not drawn) | 712 s
NC(=O)[C@@H]1C[C@H](Oc2cccnc2)CN1C(=O)Cn1c(=O)oc2ccccc21 | 564 s
CC(=O)N(CC(=O)N1CCc2sccc2C1COc1ccc(F)cc1)C(C)C (stereo not drawn) | 805 s
CC(=O)OC1CCN(C(=O)C(C)(C)C)CC1 | 726 s
Cn1c(=O)n(-c2ccc(F)cc2)c2nc(-c3ccccc3Cl)nc(C(N)=O)c21 | 912 s
COc1cc(OC)c2c(C)c(CC(=O)N3CCC(C(N)=O)CC3)c(=O)oc2c1 | 649 s
CCOC(=O)Cc1csc(NC(=O)CSc2nnc(-c3ccncc3)o2)n1 | 632 s
CC(C)(C)CCN1CCCC(COc2ccccc2C(=O)N2CCCC2)C1 (stereo not drawn) | 668 s
COc1ccc(-c2ncc3c(n2)CCN(S(=O)(=O)c2cc(C)ccc2C)C3)cc1 | 1150 s
Cc1ccc(NS(=O)(=O)c2cc(-c3cc(C(F)(F)F)on3)sc2C)cc1 | 1170 s
COCC(C)(O)CNC(=O)Nc1c(F)cccc1F (stereo not drawn) | 595 s
O=C(Cc1ccccc1Cl)NC1CCN(c2cc(-c3ccc(F)cc3)[nH]n2)C1 (stereo not drawn) | 775 s
CCn1ccc2sc(C)c(C(=O)NCc3ccc(OC)c(OC)c3)c2c1=O | 716 s
CCn1c(C(=O)NCCCN2CCCC2=O)c(N2CCCC2=O)c2cc(OC)ccc21 | 677 s
Cc1ccc(Nc2c(-c3cc(Br)ccc3F)nc3ccc(C)cn23)cc1 | 812 s
COCCNC(=O)C1CCN(c2cncnc2N2CCCCC2)CC1 | 588 s
Cc1nc(C2CCCN2Cc2ccc(F)cc2F)n[nH]1 (stereo not drawn) | 560 s
COc1ccc(CNC(=O)N2c3ccccc3CC2c2nc(C(C)C)no2)cc1 (stereo not drawn) | 1000 s
CCc1ccc(S(=O)(=O)Nc2cc(C(=O)O)ccc2N2CCN(c3ccccn3)CC2)cc1 | 669 s

Compound | RP-LC retention time
O=C(O)c1cnc(NCC2CC2)nc1-c1ccccc1 | 745 s
COCCN1CCC2(CC1)CN(Cc1cc(Cl)ccc1F)Cc1ccccc1O2 | 778 s
CC(C)Cc1csc(-c2csc(S(=O)(=O)NCc3ccc(F)cc3)c2)n1 | 1160 s
CCNc1cc(N2CCC(CCC(=O)N3CCC(COC)CC3)CC2)ncn1 | 631 s
CC(C)(C)NC(=O)N1CCC(c2nc(CCNC(=O)C3CC3)cs2)CC1 | 675 s
COCCCNC(=O)C1c2ccccc2CC(=O)N1C(C)C (stereo not drawn) | 651 s
Cc1c(Cl)cccc1NC(=O)NCC1(N2CCOCC2)CCOC1 (stereo not drawn) | 614 s
CC1=C(C(=O)N(CC(=O)NC2CCC(C)CC2)c2ccc(Cl)cc2)SCCO1 (stereo not drawn) | 1040 s
O=C(NC1CCCCCC1)C1CCc2sc(C(=O)N3CCOCC3)cc2C1 (stereo not drawn) | 789 s
COC[C@@H]1CN(Cc2c(C)n[nH]c2C)C[C@H]1c1ccccn1 | 558 s
Cc1ccc(-c2nc(NC(=O)c3cncc(Br)c3)sc2C)cc1 | 1180 s
Cc1nc(C2CCCN2Cc2ccccc2C)n[nH]1 (stereo not drawn) | 546 s
COc1cncc(C(=O)Nc2cc(F)cc(F)c2)c1 | 797 s
Cc1ccc2c(=O)c3c([nH]c2c1C)CCN(CC(=O)Nc1cccc(C#N)c1)C3 | 607 s
CC(C)(C)c1ccc(C(=O)Nc2ccc3nnc(C4CCC4)n3c2)cc1 | 772 s
COc1ccc(OC)c(NS(=O)(=O)c2c(C)sc(C)c2-c2cc(C(F)(F)F)on2)c1 | 1150 s
O=C(NCCn1nc(-n2cccn2)ccc1=O)c1ccc2nsnc2c1 | 621 s
O=C(NCc1ccc2c(c1)N(C(=O)c1ccccc1)CC2)NC1CCCC1 | 818 s
O=C(NCCc1cccs1)C1CCCN(c2nc3ccsc3c(=O)n2Cc2ccc(F)cc2)C1 (stereo not drawn) | 936 s
COc1cccc(NC(=O)Nc2ccc(Cl)c(N3CCCS3(=O)=O)c2)c1OC | 780 s
Cc1ccc(CN2CC(Oc3ccc(-c4noc(-c5cccnc5)n4)cc3)C2)o1 | 691 s
CCc1ccc(OCC(=O)N(Cc2ccc(Br)o2)C2CCS(=O)(=O)C2)cc1 (stereo not drawn) | 963 s
